Test results reported in PubChem BioAssay AID248 (DTP/NCI, 2004).
“And” between values parts separate entries of the source, which are not always exact repeats. Equal entries are not always repeated. Toxic doses and inconclusive results are not listed. No stated cut-off is given here; in the data, active means T/C of 150% or more; inactive means T/C below 125%.

System: L1210 leukemia ip in BDF1 mice, survival T/C
Test: NCI In Vivo Anticancer Drug Screen. Data for tumor model L1210 Leukemia (intraperitoneal) in B6D2F1 (BDF1) mice
Settings: endpoint: mean survival time, higher = longer survival
Procedure, shortened: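 Ratio derived from survival: compound-dosed mice over vehicle-dosed mice, all bearing a transplantable tumor.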

[1] = dose: 100.0 mg/kg/injection, schedule: Q01DX009 (ip), vehicle: Klucel (hydroxypropylcellulose) (HPC)
[2] = dose: 200.0 mg/kg/injection, schedule: Q01DX009 (ip), vehicle: Klucel (hydroxypropylcellulose) (HPC)
[3] = dose: 400.0 mg/kg/injection, schedule: Q01DX009 (ip), vehicle: Klucel (hydroxypropylcellulose) (HPC)
[4] = dose: 100.0 mg/kg/injection, schedule: Q01DX001 (ip), vehicle: saline
[5] = dose: 200.0 mg/kg/injection, schedule: Q01DX001 (ip), vehicle: saline
[6] = dose: 100.0 mg/kg/injection, schedule: Q04DX003 (ip), vehicle: saline
[7] = dose: 200.0 mg/kg/injection, schedule: Q04DX003 (ip), vehicle: saline
[8] = dose: 400.0 mg/kg/injection, schedule: Q04DX003 (ip), vehicle: saline
[9] = dose: 100.0 mg/kg/injection, schedule: Q04DX002 (ip), vehicle: saline
[10] = dose: 200.0 mg/kg/injection, schedule: Q04DX002 (ip), vehicle: saline
[11] = dose: 400.0 mg/kg/injection, schedule: Q04DX002 (ip), vehicle: saline
[12] = dose: 50.0 mg/kg/injection, schedule: Q04DX002 (ip), vehicle: Klucel (hydroxypropylcellulose) (HPC)
[13] = dose: 100.0 mg/kg/injection, schedule: Q04DX002 (ip), vehicle: Klucel (hydroxypropylcellulose) (HPC)
[14] = dose: 200.0 mg/kg/injection, schedule: Q04DX002 (ip), vehicle: Klucel (hydroxypropylcellulose) (HPC)
[15] = dose: 100.0 mg/kg/injection, schedule: Q01DX001 (ip), vehicle: Klucel (hydroxypropylcellulose) (HPC)
[16] = dose: 100.0 mg/kg/injection, schedule: Q04DX003 (ip), vehicle: Klucel (hydroxypropylcellulose) (HPC)
[17] = dose: 200.0 mg/kg/injection, schedule: Q01DX001 (ip), vehicle: Klucel (hydroxypropylcellulose) (HPC)
[18] = dose: 200.0 mg/kg/injection, schedule: Q04DX003 (ip), vehicle: Klucel (hydroxypropylcellulose) (HPC)
[19] = dose: 400.0 mg/kg/injection, schedule: Q01DX001 (ip), vehicle: Klucel (hydroxypropylcellulose) (HPC)
[20] = dose: 400.0 mg/kg/injection, schedule: Q04DX003 (ip), vehicle: Klucel (hydroxypropylcellulose) (HPC)

Measured: T/C

O=C(O)C1C2C=CC(C2)C1c1ccccc1 (configuration not stated)
inactive: dose: 100.0 mg/kg/injection, schedule: Q01DX009 (ip), vehicle: saline with Tween-80 101 % of control | dose: 100.0 mg/kg/injection, schedule: Q04DX003 (ip), vehicle: saline with Tween-80 97 % of control | dose: 200.0 mg/kg/injection, schedule: Q01DX009 (ip), vehicle: saline with Tween-80 97 % of control | dose: 200.0 mg/kg/injection, schedule: Q04DX003 (ip), vehicle: saline with Tween-80 93 % of control | dose: 400.0 mg/kg/injection, schedule: Q01DX009 (ip), vehicle: saline with Tween-80 98 % of control | dose: 400.0 mg/kg/injection, schedule: Q04DX003 (ip), vehicle: saline with Tween-80 114 % of control

CCOC(=O)C(CC#N)C(=O)OCC
inactive: dose: 75.0 mg/kg/injection, schedule: Q01DX001 (ip), vehicle: carboxymethylcellulose (CMC) 104 % of control | dose: 150.0 mg/kg/injection, schedule: Q01DX001 (ip), vehicle: carboxymethylcellulose (CMC) 98 % of control | dose: 300.0 mg/kg/injection, schedule: Q01DX001 (ip), vehicle: carboxymethylcellulose (CMC) 96 % of control

CSc1cccc[n+]1C
inactive: dose: 75.0 mg/kg/injection, schedule: Q01DX001 (ip), vehicle: saline 104 % of control

O=C(Nc1ccc(Cl)c(Cl)c1)OCCN1CCOCC1
inactive: [1] 92 % of control | [2] 94 % of control | [3] 92 % of control

COc1ccc(NCC(O)CN2CCCC2)cc1 (configuration not stated)
inactive: [4] 112 % of control | [5] 104 % of control

CCN(CC)Cc1cc(NC(C)=O)ccc1O
inactive: [6] 102 % of control | [7] 97 % of control | [8] 113 % of control

OC(c1cccc2ccccc12)c1c2ccccc2cc2ccccc12 (configuration not stated)
inactive: dose: 50.0 mg/kg/injection, schedule: Q01DX009 (ip), vehicle: saline 96 % of control | dose: 100.0 mg/kg/injection, schedule: Q01DX005 (ip), vehicle: saline 98 % of control | dose: 100.0 mg/kg/injection, schedule: Q01DX009 (ip), vehicle: saline 102 % of control and 104 % of control | [9] 93 % of control | dose: 200.0 mg/kg/injection, schedule: Q01DX005 (ip), vehicle: saline 103 % of control | dose: 200.0 mg/kg/injection, schedule: Q01DX009 (ip), vehicle: saline 100 % of control | [10] 97 % of control | dose: 400.0 mg/kg/injection, schedule: Q01DX005 (ip), vehicle: saline 106 % of control | dose: 400.0 mg/kg/injection, schedule: Q01DX009 (ip), vehicle: saline 108 % of control and 91 % of control | [11] 97 % of control

COc1cccc2c1C(=O)c1c(OC)c(C(Br)Br)cc(OC)c1C2=O
inactive: dose: 12.5 mg/kg/injection, schedule: Q01DX009 (ip), vehicle: other 99 % of control | dose: 25.0 mg/kg/injection, schedule: Q01DX009 (ip), vehicle: other 89 % of control | dose: 50.0 mg/kg/injection, schedule: Q01DX009 (ip), vehicle: other 89 % of control | dose: 100.0 mg/kg/injection, schedule: Q01DX009 (ip), vehicle: other 89 % of control | dose: 200.0 mg/kg/injection, schedule: Q01DX009 (ip), vehicle: other 87 % of control

O=C(Nc1ccc(F)cc1)C(Br)C(Br)c1ccccc1 (configuration not stated)
inactive: [1] 88 % of control | [2] 102 % of control | [3] 91 % of control

Cc1ccc(Oc2cccc3c2CC[N+](C)(C)C3)cc1
inactive: dose: 6.25 mg/kg/injection, schedule: Q04DX002 (ip), vehicle: Klucel (hydroxypropylcellulose) (HPC) 96 % of control | dose: 12.5 mg/kg/injection, schedule: Q01DX001 (ip), vehicle: Klucel (hydroxypropylcellulose) (HPC) 97 % of control | dose: 12.5 mg/kg/injection, schedule: Q04DX002 (ip), vehicle: Klucel (hydroxypropylcellulose) (HPC) 96 % of control | dose: 25.0 mg/kg/injection, schedule: Q04DX002 (ip), vehicle: Klucel (hydroxypropylcellulose) (HPC) 100 % of control | dose: 50.0 mg/kg/injection, schedule: Q01DX001 (ip), vehicle: Klucel (hydroxypropylcellulose) (HPC) 94 % of control

CCC(C)C(C=NCC(CCN1CCOCC1)(c1ccc2ccccc2c1)C(C)CC)(CCN1CCOCC1)c1ccc2ccccc2c1 (configuration not stated)
inactive: [12] 100 % of control | [13] 92 % of control | [14] 92 % of control

COc1ccccc1OC(=O)Nc1ccc(S(=O)(=O)NC2CCCCC2)cc1
inactive: [4] 100 % of control | [5] 91 % of control | dose: 400.0 mg/kg/injection, schedule: Q01DX001 (ip), vehicle: saline 94 % of control

C=CCCCCCCCC[CH2][Sn]([Cl])([Cl])[Cl]
inactive: dose: 50.0 mg/kg/injection, schedule: Q04DX003 (ip), vehicle: saline 93 % of control | [6] 101 % of control

O=C(OCCCl)c1ccccc1
inactive: dose: 60.0 mg/kg/injection, schedule: Q01DX009 (ip), vehicle: Klucel (hydroxypropylcellulose) (HPC) 103 % of control | [15] 106 % of control | [16] 101 % of control | dose: 120.0 mg/kg/injection, schedule: Q01DX009 (ip), vehicle: Klucel (hydroxypropylcellulose) (HPC) 100 % of control | [17] 98 % of control | [18] 101 % of control | dose: 240.0 mg/kg/injection, schedule: Q01DX009 (ip), vehicle: Klucel (hydroxypropylcellulose) (HPC) 94 % of control | [19] 98 % of control | [20] 101 % of control

CCc1ccccc1NC(=O)Nc1ccc(C(=O)O)cc1
inactive: [1] 98 % of control | [2] 94 % of control

CCC(C(N)=O)N1C(=O)C2C3CCC(O3)C2C1=O (configuration not stated)
inactive: [6] 101 % of control | [7] 97 % of control | [8] 101 % of control

Cc1ccc(Nc2cc(=S)nc(N)[nH]2)cc1C
inactive: dose: 100.0 mg/kg/injection, schedule: Q01DX Z (ip), vehicle: methylcellulose (MC) 103 % of control | dose: 200.0 mg/kg/injection, schedule: Q01DX Z (ip), vehicle: methylcellulose (MC) 95 % of control

O=C(Nc1ccc2c(c1)C(Br)c1ccccc1-2)C(F)(F)F (configuration not stated)
inactive: [1] 98 % of control | [16] 97 % of control | [2] 93 % of control | [18] 97 % of control | [20] 97 % of control

Cc1ccc(S(=O)(=O)N(CCCc2c(C)[nH]c(=S)[nH]c2=O)c2ccccc2)cc1
inactive: [12] 91 % of control | [13] 100 % of control and 91 % of control | [14] 100 % of control and 91 % of control | dose: 400.0 mg/kg/injection, schedule: Q04DX002 (ip), vehicle: Klucel (hydroxypropylcellulose) (HPC) 100 % of control

Nc1ccc(C(F)(F)F)cc1[N+](=O)[O-]
inactive: [9] 118 % of control | [10] 103 % of control | [11] 107 % of control

Cc1cc(C)c(N(CC(=O)O)S(=O)(=O)c2ccccc2)c(C)c1F
inactive: [15] 100 % of control | [17] 94 % of control | [19] 89 % of control

CN(C)c1ccc(/C=C(\C#N)c2ccccc2)cc1
inactive: dose: 100.0 mg/kg/injection, schedule: Q01DX001 (ip), vehicle: saline with Tween-80 87 % of control | dose: 200.0 mg/kg/injection, schedule: Q01DX001 (ip), vehicle: saline with Tween-80 88 % of control

Nc1nc(-c2ccccc2)c(CCCNC(=O)c2ccc([N+](=O)[O-])cc2)c(=O)[nH]1
inactive: [16] 93 % of control | [18] 93 % of control | [20] 90 % of control

O=C1OCC(Cl)=C1Cl
inactive: dose: 6.25 mg/kg/injection, schedule: Q04DX003 (ip), vehicle: saline 101 % of control | dose: 12.5 mg/kg/injection, schedule: Q04DX003 (ip), vehicle: saline 101 % of control | dose: 25.0 mg/kg/injection, schedule: Q04DX003 (ip), vehicle: saline 103 % of control

CCCCCCCCCCCCCCCCNS(=O)(=O)c1ccc(Br)cc1
inactive: [15] 96 % of control | [16] 91 % of control | [17] 93 % of control | [18] 95 % of control | [19] 96 % of control | [20] 103 % of control

CN(C)CCCNC(=S)S
inactive: dose: 6.0 mg/kg/injection, schedule: Q01DX009 (ip), vehicle: saline 106 % of control | dose: 12.0 mg/kg/injection, schedule: Q01DX009 (ip), vehicle: saline 100 % of control | dose: 25.0 mg/kg/injection, schedule: Q01DX009 (ip), vehicle: saline 111 % of control
